Laboratory results as given in the supplement of paper PMC10307832.

Columns and labels:
Assay in all cases: relative viability (nuclei count vs DMSO), 5 days (fraction); higher = more cells survive
[1] = compound: CC(C)N(CCCNC(=O)Nc1ccc(C(C)(C)C)cc1)C[C@H]1O[C@@H](n2ccc3c(N)ncnc32)[C@H](O)[C@@H]1O + CCNC(=O)c1noc(-c2cc(C(C)C)c(O)cc2O)c1-c1ccc(CN2CCOCC2)cc1 [Luminespib] (partner 0.01 µM)
Method in brief: (§1)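 Each reported value is a median over duplicate plates. It expresses relative viability: treated-well nuclei count divided by vehicle-well nuclei count. Lung cancer cell lines in 1536-well plates were dosed by pin tool a day after seeding, alone with one drug or with a fixed anchor-drug dose plus five library-drug doses (not always all listed) in √10 steps, and nuclei were counted after 5 days.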

[2] = compound: CC(C)N(CCCNC(=O)Nc1ccc(C(C)(C)C)cc1)C[C@H]1O[C@@H](n2ccc3c(N)ncnc32)[C@H](O)[C@@H]1O + Cc1nc(NC(=O)N2CCC[C@H]2C(N)=O)sc1-c1ccnc(C(C)(C)C(F)(F)F)c1 [Alpelisib] (partner 2 µM)
Method in brief: as §1

[3] = compound: CC(C)=CC[C@@H](O)C1=CC(=O)c2c(O)ccc(O)c2C1=O [Shikonin] + N=C(N)NC(=N)NCCc1ccccc1 [Phenformin] (partner 250 µM)
Method in brief: as §1

[4] = compound: CC(C)=CC[C@@H](O)C1=CC(=O)c2c(O)ccc(O)c2C1=O [Shikonin] + CC1(C)CCC(c2ccc(Cl)cc2)=C(CN2CCN(c3ccc(C(=O)NS(=O)(=O)c4ccc(N[C@H](CCN5CCOCC5)CSc5ccccc5)c(S(=O)(=O)C(F)(F)F)c4)cc3)CC2)C1 [Navitoclax] (partner 0.5 µM)
Method in brief: as §1

Cell Line | relative viability ([1]; first compound 0.08 µM) | relative viability ([1]; first compound 0.253 µM) | relative viability ([1]; first compound 0.8 µM) | relative viability ([1]; first compound 2.53 µM) | relative viability ([1]; first compound 8 µM) | relative viability ([2]; first compound 0.08 µM) | relative viability ([2]; first compound 0.253 µM) | relative viability ([2]; first compound 0.8 µM) | relative viability ([2]; first compound 2.53 µM) | relative viability ([2]; first compound 8 µM) | relative viability ([3]; first compound 0.01 µM) | relative viability ([3]; first compound 0.1 µM) | relative viability ([3]; first compound 0.3162 µM) | relative viability ([3]; first compound 1 µM) | relative viability ([4]; first compound 0.01 µM) | relative viability ([4]; first compound 0.1 µM) | relative viability ([4]; first compound 0.3162 µM) | relative viability ([4]; first compound 1 µM)
201T | 1.04 | 1.01 | 1.13 | 0.984 | 1.06 | 1 | 1.03 | 1.02 | 0.98 | 0.962 | 0.464 | 0.492 | 0.428 | 0.498 | 1.2 | 1.26 | 1.18 | 1.19
A549 |  |  |  |  |  | 0.68 | 0.848 | 0.948 | 0.723 | 0.659 | 0.14 | 0.355 | 0.12 | 0.122 | 1.46 | 1.49 | 1.35 | 1.17
A-427 | 0.889 | 0.875 | 1.03 | 0.884 | 0.817 | 1.08 | 1.03 | 1.11 | 1.1 | 1.18 | 0.327 | 0.418 | 0.316 | 0.398 | 0.931 | 1.14 | 0.99 | 0.983
ABC-1 | 0.676 | 0.802 |  | 0.635 | 0.583 | 0.989 | 1.2 |  | 1.12 | 1.07 | 0.247 | 0.23 | 0.206 | 0.188 |  |  |  | 
BEN | 0.347 | 0.461 | 0.282 | 0.442 | 0.303 | 0.909 | 0.93 | 0.953 | 0.913 | 0.989 | 0.298 | 0.286 | 0.279 | 0.232 | 0.0555 | 0.0688 | 0.0568 | 0.096
CAL-12T | 0.733 | 0.365 | 0.512 | 0.465 | 0.423 | 1.02 | 1.32 | 1.26 | 1 | 1 | 0.612 | 0.542 | 0.464 | 0.55 | 1.29 | 1.3 | 1.32 | 1.22
COR-L23 | 0.683 | 0.757 | 0.755 | 0.739 | 0.545 | 0.74 | 0.765 | 0.791 | 0.955 | 0.759 | 0.462 | 0.438 | 0.465 | 0.406 | 1.13 | 1.26 | 1.05 | 0.908
COR-L 105 | 0.705 | 0.811 | 0.601 | 0.827 | 0.736 | 0.733 | 1.08 | 1.06 | 1.02 | 0.974 | 0.452 | 0.507 | 0.423 | 0.466 | 0.9 | 0.786 | 0.747 | 0.768
Calu-6 |  |  |  |  |  | 0.987 | 1.01 | 1.02 | 1.09 | 0.984 |  |  |  |  | 1.1 | 1.11 | 0.981 | 0.448
ChaGo-K-1 | 0.583 | 0.552 | 0.47 | 0.683 | 0.643 |  |  |  |  |  | 0.475 | 0.542 | 0.543 | 0.471 | 0.882 | 1.4 | 1.01 | 1.44
EBC-1 |  |  |  |  |  | 0.749 | 0.825 | 0.739 | 0.848 | 0.704 |  |  |  |  | 0.366 | 0.392 | 0.352 | 0.254
EKVX | 0.758 | 0.847 | 0.838 | 0.909 | 0.846 | 0.908 | 0.883 | 0.827 | 0.855 | 0.676 | 0.213 | 0.229 | 0.233 | 0.243 | 0.828 | 0.897 | 1.21 | 0.903
EMC-BAC-2 | 1.16 | 1.15 | 1.22 | 1.24 | 1.13 | 0.654 | 0.753 | 0.722 | 0.721 | 0.706 | 0.516 | 0.607 | 0.569 | 0.517 | 1.13 | 1.1 | 1.28 | 1.22
EPLC-272H | 0.0863 | 0.265 | 0.268 | 0.46 | 0.232 | 0.95 | 0.912 | 0.856 | 1.03 | 1.03 | 0.282 | 0.309 | 0.255 | 0.298 | 1.17 | 1.07 | 1.27 | 1.14
H3255 | 0.875 | 0.892 | 0.876 | 0.838 | 0.837 | 0.93 | 0.711 | 0.662 | 0.714 | 0.665 | 0.398 | 0.384 | 0.353 | 0.35 | 0.454 | 0.695 | 0.519 | 0.584
HARA | 0.682 | 0.626 | 0.731 | 0.536 | 0.587 | 0.795 | 0.744 | 0.763 | 0.701 | 0.779 | 0.431 | 0.707 | 0.538 | 0.491 | 1.14 | 1.13 | 1.15 | 1.13
HCC-15 | 0.327 | 0.378 | 0.435 | 0.33 | 0.31 | 0.79 | 0.863 | 0.891 | 0.93 | 0.811 | 0.511 | 0.545 | 0.49 | 0.456 | 0.742 | 0.655 | 0.784 | 0.747
HCC-44 | 0.972 | 1.06 | 1.1 | 1.15 | 1.03 | 0.811 | 0.785 | 0.744 | 0.787 | 0.806 | 0.212 | 0.162 | 0.226 | 0.267 | 1.04 | 0.909 | 1.1 | 1.07
HCC-78 |  |  |  |  |  | 0.272 | 0.289 | 0.323 | 0.334 | 0.315 | 0.66 | 0.705 | 0.697 | 0.806 | 0.718 | 0.964 | 0.942 | 0.841
